Where a SMILES comes first, the peptide text is derived from it. [ ]: non-standard residue; d: D form.
Tests used:
Experiment in all cases: GHS Ligand Binding Assay
[1] = target: Growth hormone secretagogue receptor type 1 (Homo sapiens, UniProt Q92847)
Description: (§1) Titration experimentswere carried out with protein concentrations in the 10 nM protein concentration range and increasing ligand concentrations. […] Buffer contributions were systematically subtracted.

[2] = target: Dimer of Growth hormone secretagogue receptor type 1 (Homo sapiens, UniProt Q92847)
Description: as §1

[3] = target: Growth hormone secretagogue receptor type 1/Isoform 1B of Growth hormone secretagogue receptor type 1 (1B) (Homo sapiens, UniProt Q92847)
Description: as §1

Growth hormone secretagogue receptor type 1, sequence (Q92847 whole entry): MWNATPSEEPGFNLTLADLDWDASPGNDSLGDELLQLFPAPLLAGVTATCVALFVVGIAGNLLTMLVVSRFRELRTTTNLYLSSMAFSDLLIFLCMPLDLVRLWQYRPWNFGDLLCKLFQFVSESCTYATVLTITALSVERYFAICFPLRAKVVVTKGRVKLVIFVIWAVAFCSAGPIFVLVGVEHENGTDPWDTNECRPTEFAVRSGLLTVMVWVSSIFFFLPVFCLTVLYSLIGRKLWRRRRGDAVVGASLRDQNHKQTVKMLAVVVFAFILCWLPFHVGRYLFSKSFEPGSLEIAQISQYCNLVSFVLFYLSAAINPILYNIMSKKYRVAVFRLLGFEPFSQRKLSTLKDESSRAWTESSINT
Dimer of Growth hormone secretagogue receptor type 1, sequence (Q92847 whole entry): as above
Growth hormone secretagogue receptor type 1/Isoform 1B of Growth hormone secretagogue receptor type 1 (1B), sequence (Q92847 whole entry, canonical isoform): as the sequence (Q92847 whole entry) above
Growth hormone secretagogue receptor type 1/Isoform 1B of Growth hormone secretagogue receptor type 1 (1B), sequence (Q92847 as listed by the source): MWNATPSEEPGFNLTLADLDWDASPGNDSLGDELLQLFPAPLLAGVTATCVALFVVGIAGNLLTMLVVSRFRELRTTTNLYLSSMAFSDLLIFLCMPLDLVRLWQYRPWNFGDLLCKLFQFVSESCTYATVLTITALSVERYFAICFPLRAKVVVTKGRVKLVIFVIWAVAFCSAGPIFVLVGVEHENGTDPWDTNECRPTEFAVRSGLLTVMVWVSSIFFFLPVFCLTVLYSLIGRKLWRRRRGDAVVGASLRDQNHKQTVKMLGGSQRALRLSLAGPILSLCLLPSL

SMILES | Ki [1] | Ki [2] | Ki [3]
CC(C)C[C@H](NC(=O)[C@H](CC(C)C)NC(=O)[C@@H](Cc1c[nH]c2ccccc12)NC(=O)[C@H](Cc1ccccc1)NC(=O)[C@@H](Cc1c[nH]c2ccccc12)NC(=O)[C@H](CCC(N)=O)NC(=O)[C@@H](Cc1c[nH]c2ccccc12)NC(=O)[C@@H]1CCCN1C(=O)[C@H](CCCCN)NC(=O)[C@@H]1CCCN1C(=O)[C@H](N)CCCN=C(N)N)C(N)=O [Substance P [DArg1, DTrp5,7,9,  Leu11]] (H-[dR]PKP[dW]Q[dW]F[dW]LL-NH2) | 294 nM | 286 nM | 292 nM
COc1ccc(Cn2c(CCc3ccccc3)nnc2C(Cc2c[nH]c3ccccc23)NC(=O)c2ccccn2)c(OC)c1 (configuration not stated) [JMV 3002] | 9.2 nM | 9.9 nM | 19.3 nM
COc1ccc(Cn2c(CCc3c[nH]c4ccccc34)nnc2C(Cc2c[nH]c3ccccc23)NC(=O)c2ccccn2)c(OC)c1 (configuration not stated) [JMV 3011] | 8.3 nM |  | 

— BindingDB's records for doi:10.1074/jbc.M113.453423 (Université Montpellier 1, 2013)
